What was measured:
MAPKAPK5 = target: T1, MAPKAPK5 (Homo sapiens, UniProt Q8IW41); assay: MAPKAP-K5 assay (FlashPlate kinase assay)
T1 sequence (Q8IW41 1-471 isoform Q8IW41-2): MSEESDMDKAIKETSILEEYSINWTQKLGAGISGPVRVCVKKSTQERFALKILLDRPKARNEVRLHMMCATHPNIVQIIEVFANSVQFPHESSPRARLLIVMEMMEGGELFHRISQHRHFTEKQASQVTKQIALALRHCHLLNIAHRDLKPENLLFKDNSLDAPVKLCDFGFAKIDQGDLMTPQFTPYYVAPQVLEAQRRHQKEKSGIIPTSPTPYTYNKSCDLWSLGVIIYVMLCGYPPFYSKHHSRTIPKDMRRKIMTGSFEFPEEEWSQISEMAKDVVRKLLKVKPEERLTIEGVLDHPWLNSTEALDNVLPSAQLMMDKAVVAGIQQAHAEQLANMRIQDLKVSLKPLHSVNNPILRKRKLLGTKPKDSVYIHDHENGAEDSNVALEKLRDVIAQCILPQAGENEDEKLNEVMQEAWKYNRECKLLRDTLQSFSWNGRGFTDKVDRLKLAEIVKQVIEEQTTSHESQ

[1] = tested on: MMP1 expression by activated primary synovial fibroblasts; assay: 'MMP assay': MMP1 expression by complex trigger activated synovial fibroblasts (MMP1 ELISA); type: cell-based; details: Homo sapiens, Fibroblast; Table 3; RASFs, complex trigger, 48 hrs, MMP1 ELISA
[2] = tested on: TNFα release by human PBMCs; assay: Cytokine release by LPS stimulated human PBMCs (TNFα ELISA); type: cell-based; details: PBMC, 24 h, Table 5, LPS 1 μg/mL

## CC(C)N1CCN(c2ccc(Nc3ncc(-c4csc(C(N)=O)n4)n4ncnc34)cc2)CC1 [Compound 62, 4-{8-[4-(4-Isopropylpiperazin-1-yl)phenylamino]-[1,2,4]triazolo[1,5-a]pyrazin-5-yl}thiazole-2-carboxylic acid amide]
MAPKAPK5
  IC50: 0.501 to 1 µM
[1]
  EC50: > 1 µM
[2]
  EC50: 0.501 to 1 µM

## OCc1cc(Nc2ncc(-c3cn[nH]c3)n3ncnc23)ccc1N1CCOCC1 [Compound 37, {5-[5-(1H-Pyrazol-4-yl)-[1,2,4]triazolo[1,5-a]pyrazin-8-ylamino]-2-morpholinophenyl}methanol]
MAPKAPK5
  IC50: > 1 µM
[1]
  EC50: 0.501 to 1 µM
[2]
  EC50: > 1 µM

## NC(=O)c1cc(-c2cnc(Nc3ccc(N4CCOCC4)cc3)c3ncnn23)co1 [Compound 34, 4-(8-(4-Morpholinophenylamino)-[1,2,4]triazolo[1,5-a]pyrazin-5-yl)furan-2-carboxamide]
MAPKAPK5
  IC50: 0.101 to 0.5 µM
[1]
  EC50: 0.001 to 0.1 µM
[2]
  EC50: > 1 µM

## CC(C)N1CCN(c2ccc(Nc3ncc(-c4ccnc(CO)c4)n4ncnc34)cn2)CC1 [Compound 90, (4-{8-[6-(4-Isopropylpiperazin-1-yl)pyridin-3-ylamino]-[1,2,4]triazolo[1,5-a]pyrazin-5-yl}pyridin-2-yl)methanol]
MAPKAPK5
  IC50: > 1 µM
[1]
  EC50: > 1 µM
[2]
  EC50: > 1 µM

## O=C1CCc2cc(-c3cnc(Nc4ccc(N5CCOCC5)cc4)c4ncnn34)ccc2N1 [Compound 39]
MAPKAPK5
  IC50: > 1 µM
[1]
  EC50: > 1 µM
[2]
  EC50: > 1 µM

## O=C1NCc2cc(-c3cnc(Nc4ccc(N5CCNCC5=O)cc4)c4ncnn34)ccc21 [Compound 105, 5-{8-[4-(2-Oxo-piperazin-1-yl)-phenylamino]-[1,2,4]triazolo[1,5-a]pyrazin-5-yl}-2,3-dihydro-isoindol-1-one]
MAPKAPK5
  IC50: 0.001 to 0.1 µM
[1]
  EC50: > 1 µM
[2]
  EC50: > 1 µM

## CC(C)N1CCN(c2ccc(Nc3ncc(-c4cn[nH]c4)n4ncnc34)cc2)CC1 [Compound 38]
MAPKAPK5
  IC50: 0.501 to 1 µM
[1]
  EC50: > 1 µM
[2]
  EC50: > 1 µM

## c1cc(-c2cnc(Nc3ccc(N4CCOCC4)cc3)c3ncnn23)[nH]n1 [Compound 23, (4-Morpholin-4-yl-phenyl)-[5-(2H-pyrazol-3-yl)-[1,2,4]triazolo[1,5-a]pyrazin-8-yl]-amine]
MAPKAPK5
  IC50: > 1 µM
[1]
  EC50: > 1 µM
[2]
  EC50: > 1 µM

## CC(C)N1CCN(c2ccc(Nc3ncc(-c4ccc5c(c4)CNC5=O)n4ncnc34)cc2)CC1 [Compound 36, 5-(8-(4-(4-Isopropylpiperazin-1-yl)phenylamino)-[1,2,4]triazolo[1,5-a]pyrazin-5-yl)isoindolin-1-one]
MAPKAPK5
  IC50: 0.001 to 0.1 µM
[1]
  EC50: 0.101 to 0.5 µM
[2]
  EC50: > 1 µM

## c1nc2c(Nc3ccc(N4CCOCC4)cc3)ncc(-c3ccsc3)n2n1 [Compound 50, (4-Morpholin-4-ylphenyl)-(5-thiophen-3-yl-[1,2,4]triazolo[1,5-a]pyrazin-8-yl)amine]
MAPKAPK5
  IC50: > 1 µM
[1]
  EC50: 0.101 to 0.5 µM
[2]
  EC50: > 1 µM

## O=C1NCc2cc(-c3cnc(Nc4ccc(N5CCOCC5)cc4F)c4ncnn34)ccc21 [Compound 75]
MAPKAPK5
  IC50: > 1 µM
[1]
  EC50: > 1 µM
[2]
  EC50: > 1 µM

## c1ccc2c(-c3cnc(Nc4ccc(N5CCOCC5)cc4)c4ncnn34)csc2c1 [Compound 48, (5-Benzo[b]thiophen-3-yl-[1,2,4]triazolo[1,5-a]pyrazin-8-yl)-(4-morpholin-4-ylphenyl)amine]
MAPKAPK5
  IC50: > 1 µM
[1]
  EC50: 0.101 to 0.5 µM
[2]
  EC50: > 1 µM

## Cc1[nH]ncc1-c1cnc(Nc2ccc(N3CCOCC3)cc2)c2ncnn12 [Compound 12, 5-(5-Methyl-1H-pyrazol-4-yl)-N-(4-morpholinophenyl)-[1,2,4]triazolo[1,5-a]pyrazin-8-amine]
MAPKAPK5
  IC50: 0.501 to 1 µM
[1]
  EC50: 0.501 to 1 µM
[2]
  EC50: > 1 µM

## CN1CCN(c2ccc(Nc3ncc(-c4ccc(C(N)=O)cc4F)n4ncnc34)cc2)CC1 [Compound 8]
MAPKAPK5
  IC50: > 1 µM
[1]
  EC50: 0.501 to 1 µM
[2]
  EC50: > 1 µM

## Fc1cc(N2CCOCC2)ccc1Nc1ncc(-c2cn[nH]c2)n2ncnc12 [Compound 67, N-(2-Fluoro-4-morpholinophenyl)-5-(1H-pyrazol-4-yl)-[1,2,4]triazolo[1,5-a]pyrazin-8-amine]
MAPKAPK5
  IC50: > 1 µM
[1]
  EC50: > 1 µM
[2]
  EC50: > 1 µM

## NC(=O)c1cc(-c2cnc(Nc3ccc(N4CCN(CC(F)(F)F)CC4)nc3)c3ncnn23)cs1 [Compound 56, 4-(8-{6-[4-(2,2,2-Trifluoroethyl)piperazin-1-yl]-pyridin-3-ylamino}-[1,2,4]triazolo[1,5-a]pyrazin-5-yl)thiophene-2-carboxylic acid amide]
MAPKAPK5
  IC50: 0.501 to 1 µM
[1]
  EC50: 0.501 to 1 µM
[2]
  EC50: > 1 µM

## CC(C)N1CCN(c2ccc(Nc3ncc(-c4ccc5c(c4)CNC5=O)n4ncnc34)cc2C(F)(F)F)CC1 [Compound 170, 5-{8-[4-(4-Isopropylpiperazin-1-yl)-3-trifluoromethylphenylamino]-[1,2,4]triazolo[1,5-a]pyrazin-5-yl}-2,3-dihydroisoindol-1-one]
MAPKAPK5
  IC50: 0.101 to 0.5 µM
[1]
  EC50: > 1 µM
[2]
  EC50: > 1 µM

## O=C1NCc2cc(-c3cnc(NC4CCCCC4)c4ncnn34)ccc21 [Compound 115]
MAPKAPK5
  IC50: 0.101 to 0.5 µM
[1]
  EC50: > 1 µM
[2]
  EC50: > 1 µM

## CC(C)N1CCN(c2ccc(Nc3ncc(-c4cc(F)c(C(N)=O)c(F)c4)n4ncnc34)cc2)CC1 [Compound 26]
MAPKAPK5
  IC50: > 1 µM
[1]
  EC50: > 1 µM
[2]
  EC50: 0.501 to 1 µM

## O=C1NCc2cc(-c3cnc(NC4CCCC4)c4ncnn34)ccc21 [Compound 181]
MAPKAPK5
  IC50: 0.101 to 0.5 µM
[1]
  EC50: > 1 µM
[2]
  EC50: > 1 µM

## NC(=O)c1cc(-c2cnc(Nc3ccc(N4CCOCC4)cc3)c3ncnn23)cs1 [Compound 15, 4-[8-(4-Morpholin-4-yl-phenylamino)-[1,2,4]triazolo[1,5-a]pyrazin-5-yl]-thiophene-2-carboxylic acid amide]
MAPKAPK5
  IC50: 0.101 to 0.5 µM
[1]
  EC50: 0.101 to 0.5 µM
[2]
  EC50: 0.501 to 1 µM

## c1nc2c(Nc3ccc(N4CCOCC4)cc3)ncc(-c3ccc4ncsc4c3)n2n1 [Compound 66]
MAPKAPK5
  IC50: > 1 µM
[1]
  EC50: 0.501 to 1 µM
[2]
  EC50: > 1 µM

## CN1CCN(c2ccc(Nc3ncc(-c4ccc(C(N)=O)cc4)n4ncnc34)cc2)CC1 [Compound 3]
MAPKAPK5
  IC50: > 1 µM
[1]
  EC50: 0.101 to 0.5 µM
[2]
  EC50: > 1 µM

## C[C@@H]1CN(c2ccc(Nc3ncc(-c4cn[nH]c4)n4ncnc34)cc2)[C@@H](C)CN1C [Compound 31]
MAPKAPK5
  IC50: 0.101 to 0.5 µM
[1]
  EC50: > 1 µM
[2]
  EC50: > 1 µM

## NC(=O)c1cc(-c2cnc(Nc3ccc(C4CCN(CC(F)(F)F)CC4)cc3)c3ncnn23)cs1 [Compound 63, 4-(8-{4-[1-(2,2,2-Trifluoroethyl)piperidin-4-yl]phenylamino}-[1,2,4]triazolo[1,5-a]pyrazin-5-yl)thiophene-2-carboxylic acid amide]
MAPKAPK5
  IC50: > 1 µM
[1]
  EC50: 0.101 to 0.5 µM
[2]
  EC50: > 1 µM

## Clc1cc(Nc2ncc(-c3cn[nH]c3)n3ncnc23)ccc1N1CCOCC1 [Compound 18]
MAPKAPK5
  IC50: > 1 µM
[1]
  EC50: 0.501 to 1 µM
[2]
  EC50: > 1 µM

## FC(F)(F)CN1CCN(c2ccc(Nc3ncc(-c4cn[nH]c4)n4ncnc34)cn2)CC1 [Compound 44, [5-(1H-Pyrazol-4-yl)-[1,2,4]triazolo[1,5-a]pyrazin-8-yl]-{6-[4-(2,2,2-trifluoroethyl)piperazin-1-yl]pyridin-3-yl}amine]
MAPKAPK5
  IC50: > 1 µM
[1]
  EC50: > 1 µM
[2]
  EC50: > 1 µM

## CN1CCN(c2ccc(Nc3ncc(-c4csc(C(N)=O)c4)n4ncnc34)cc2)CC1 [Compound 6, 4-{8-[4-(4-Methyl-piperazin-1-yl)-phenylamino]-[1,2,4]triazolo[1,5-a]pyrazin-5-yl}-thiophene-2-carboxylic acid amide]
MAPKAPK5
  IC50: 0.001 to 0.1 µM
[1]
  EC50: 0.101 to 0.5 µM
[2]
  EC50: > 1 µM

## O=C1NCc2cc(-c3cnc(Nc4cnc(N5CCOCC5)nc4)c4ncnn34)ccc21 [Compound 99]
MAPKAPK5
  IC50: 0.101 to 0.5 µM
[1]
  EC50: > 1 µM
[2]
  EC50: 0.501 to 1 µM

## FC(F)(F)CN1CCC(c2ccc(Nc3ncc(-c4cn[nH]c4)n4ncnc34)cc2)CC1 [Compound 64]
MAPKAPK5
  IC50: > 1 µM
[1]
  EC50: > 1 µM
[2]
  EC50: > 1 µM

## O=C1NCCc2cc(-c3cnc(Nc4ccc(N5CCOCC5)cc4)c4ncnn34)ccc21 [Compound 35, 6-(8-(4-Morpholinophenylamino)-[1,2,4]triazolo[1,5-a]pyrazin-5-yl)-3,4-dihydroisoquinolin-1(2H)-one]
MAPKAPK5
  IC50: > 1 µM
[1]
  EC50: 0.101 to 0.5 µM
[2]
  EC50: > 1 µM

## CC(C)N1CCN(c2ccc(Nc3ncc(-c4ccnc(CF)c4)n4ncnc34)cc2)CC1 [Compound 91]
MAPKAPK5
  IC50: > 1 µM
[1]
  EC50: > 1 µM
[2]
  EC50: > 1 µM

## CN1CCN(c2ccc(Nc3ncc(-c4ccc(C(N)=O)s4)n4ncnc34)cc2)CC1 [Compound 9, 5-{8-[4-(4-Methyl-piperazin-1-yl)-phenylamino]-[1,2,4]triazolo[1,5-a]pyrazin-5-yl}-thiophene-2-carboxylic acid amide]
MAPKAPK5
  IC50: 0.501 to 1 µM
[1]
  EC50: 0.501 to 1 µM
[2]
  EC50: 0.101 to 0.5 µM

## CNC(=O)c1nc(-c2cnc(Nc3ccc(N4CCN(C(C)C)CC4)cc3)c3ncnn23)cs1 [Compound 74]
MAPKAPK5
  IC50: > 1 µM
[1]
  EC50: > 1 µM
[2]
  EC50: > 1 µM

Source: patent US20100298300A1, “TRIAZOLOPYRAZINE COMPOUNDS USEFUL FOR THE TREATMENT OF DEGENERATIVE & INFLAMMATORY DISEASES” (priority 2006, published 2010)
